Laboratory results published in paper PMC7807051, “Modulation of cAMP metabolism for CFTR potentiation in human airway epithelial cells” (Scientific Reports, 2021).

Key:
G551D-CFTR = system: G551D-CFTR; parameters: method as in PMID 21083385, PMID 22047557; settings: G551D-CFTR variants; various doses and treatment durations; cited from earlier work
CFTR [1] = test: In vitro CFTR membrane potential assay in Calu-3 cells; assay type: cell-based, human; settings: Calu-3
Protocol: (§1) An in vitro CFTR membrane potential assay was performed on Calu-3 cells and primary human bronchial epithelial cells, from two independent donors, cultured at 37 °C as previously described. All human samples were collected from consented individuals under ethics approval granted by Hamilton Integrated Research Ethics Board (Project Number 5099-T).
Calu-3 cells were grown for 21 days on 96-well plates and primary HBECs were grown for 14 days under air–liquid interface conditions on collagen-coated (Sigma-Aldrich) 6.5 mm Transwell Inserts (Corning). All cells were washed with HBSS prior to experimental conditions. After washing with HBSS, cells were loaded with BLUE Membrane Potential Dye (Molecular Devices, #R8042) dissolved in 37 °C chloride-free buffer (NMDG Gluconate Buffer – 150 mM NMDG-gluconate, 3 mM KCl, 10 mM HEPES, pH 7.35, 300 mOsm). Immediately after dye loading, CFTR activity measurements were taken. CFTR activity measurements are fluorescent readouts for detecting ion channel activity. CFTR inhibition was performed with CFTRinh-172 (10 μM) for all experiments to attribute changes in fluorescence as CFTR channel activity. This assay has been validated using proof of concept studies where results obtained from this assay were able to recapitulate findings obtained from direct measurements of ion channel activity using Ussing chambers. At the end of this assay, raw data was exported for statistical analysis.
For Calu-3 cells, measurements were taken during baseline (40 min), cAMP elevation (30 min), and CFTR inhibition (20 min). cAMP elevation was performed using forskolin or isoproterenol (0.0005–50 μM). For assays with ABCC4 or PDE-4 inhibitors, a pre-incubation with the inhibitors (30 min) in the plate reader was performed prior to cAMP elevation. CFTR modulator VX-770 was used at 1 μM. CFTR activity was determined by dividing a single membrane potential peak measurement after the ABCC4 or PDE-4 inhibition and cAMP elevation additions to the stabilized baseline over DMSO control.
For in vitro CFTR membrane potential assays, in Calu-3 cells, values were normalized to the averaged baseline over averaged vehicle (DMSO) control of all biological replicates. SD was calculated using data from biological replicates (n = 4–8). An area under the curve (AUC), half-maximal concentration (EC50), […] (Emax), and baseline analysis was performed for each individual replicate then averaged together. The AUC analysis is an aggregate measure of sensitivity and maximal response, allowing for the observation of the total net responsiveness of the cells. The AUC analysis was done by normalizing the individual replicates to the bottom most value of the averaged vehicle control. In primary HBECs, six independent measurements were taken within a single Transwell insert. The value is the average of at least six measurements. These values were normalized to the averaged baseline over the averaged vehicle (DMSO) control. SD was calculated by treating the six measurements as independent, with additional technical replicates (n = 6–18). An AUC and max peak analysis were performed for each measurement, then averaged together. The max peak analysis was the max CFTR activity achieved during the drug addition step.
In order to compare the independent experiments performed, a fold-change analysis using individual AUC, EC50, and Emax, determined from their respective concentration–response curves, was performed and was normalized to the averaged DMSO vehicle control. A one-way ANOVA with subsequent post-hoc test or a paired t-test was performed. Statistical analysis was performed using GraphPad Prism 6.

ABCC4 [2] = target: T1, ABCC4 (Homo sapiens, UniProt O15439); test: In vitro extracellular cAMP assay of ABCC4 inhibitors in HBEC6-KT cells; assay type: cell-based; settings: IBMX 20 μM pre-treatment, forskolin 10 μM, normalized to IBMX + forskolin, read-out: half maximal inhibitory concentration (IC50), extracellular cAMP
T1 construct: ABCC4 was present in both HBEC6-KT and Calu-3 cells at all-time points, indicated by the bands present at 150 kDa; endogenous in cells; host or cells: HBEC6-KT (immortalized human bronchial epithelial cells)
T1 sequence (O15439 1-1325): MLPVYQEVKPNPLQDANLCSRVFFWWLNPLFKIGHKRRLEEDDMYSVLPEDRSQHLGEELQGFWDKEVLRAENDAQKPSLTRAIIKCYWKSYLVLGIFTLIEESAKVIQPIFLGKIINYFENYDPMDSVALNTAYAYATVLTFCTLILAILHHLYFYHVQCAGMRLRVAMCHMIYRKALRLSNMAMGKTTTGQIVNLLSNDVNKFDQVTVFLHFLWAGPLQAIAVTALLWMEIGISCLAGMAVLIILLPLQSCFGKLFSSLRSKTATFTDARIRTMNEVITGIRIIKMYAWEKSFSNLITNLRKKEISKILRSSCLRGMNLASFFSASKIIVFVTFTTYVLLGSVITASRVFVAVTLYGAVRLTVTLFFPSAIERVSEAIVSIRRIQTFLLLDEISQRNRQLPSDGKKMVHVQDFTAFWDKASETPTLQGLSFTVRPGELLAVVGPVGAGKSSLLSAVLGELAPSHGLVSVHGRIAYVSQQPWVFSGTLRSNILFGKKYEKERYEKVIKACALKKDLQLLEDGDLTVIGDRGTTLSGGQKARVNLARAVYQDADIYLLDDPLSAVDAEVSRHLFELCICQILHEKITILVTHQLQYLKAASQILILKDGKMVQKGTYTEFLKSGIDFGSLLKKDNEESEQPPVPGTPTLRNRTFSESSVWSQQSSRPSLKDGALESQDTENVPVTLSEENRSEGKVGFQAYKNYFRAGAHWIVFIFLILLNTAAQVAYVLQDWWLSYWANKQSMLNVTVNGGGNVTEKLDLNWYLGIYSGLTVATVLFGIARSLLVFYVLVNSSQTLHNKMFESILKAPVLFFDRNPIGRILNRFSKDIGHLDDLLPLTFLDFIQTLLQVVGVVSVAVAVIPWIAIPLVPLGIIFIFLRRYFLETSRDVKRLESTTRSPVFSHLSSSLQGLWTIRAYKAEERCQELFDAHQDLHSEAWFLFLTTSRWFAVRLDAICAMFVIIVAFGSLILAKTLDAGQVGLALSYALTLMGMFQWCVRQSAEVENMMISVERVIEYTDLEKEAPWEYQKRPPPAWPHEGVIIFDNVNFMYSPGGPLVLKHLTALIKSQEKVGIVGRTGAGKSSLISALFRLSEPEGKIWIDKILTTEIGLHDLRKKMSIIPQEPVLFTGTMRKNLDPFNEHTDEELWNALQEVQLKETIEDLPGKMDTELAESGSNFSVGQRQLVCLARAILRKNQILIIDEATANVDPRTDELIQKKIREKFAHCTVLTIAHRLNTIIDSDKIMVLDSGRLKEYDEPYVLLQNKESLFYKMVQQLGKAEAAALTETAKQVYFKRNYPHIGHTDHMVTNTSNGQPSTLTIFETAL
Protocol: (§2) Cells were pretreated with IBMX (20 μM) for 2 h prior to experimental conditions. After the pre-treatment of IBMX, cells were treated with ABCC4 inhibitors (0.01–100 μM) or DMSO for 30 min. Following these exposures, the cells were treated with forskolin (10 μM) for 6 h and cell-culture supernatants were collected for analysis of extracellular cAMP. The negative control was IBMX alone and the positive control was IBMX and forskolin.
(§3) For the in vitro extracellular cAMP assay, values were normalized to the positive control (IBMX and forskolin) and the half maximal inhibitory concentration (IC50) was determined. SD was calculated using data from biological replicates (n = 4–5).
Cell culture supernatants were assessed for cAMP levels 24h post-treatment.

ABCC4 [3] = target: T1, ABCC4; test: In vitro extracellular cAMP assay of ABCC4 inhibitors in Calu-3 cells; assay type: cell-based; settings: IBMX 20 μM pre-treatment, forskolin 10 μM, normalized to IBMX + forskolin, read-out: half maximal inhibitory concentration (IC50), extracellular cAMP
Protocol: Cell culture supernatants were assessed for cAMP levels 24 h post-treatment.
as §2, §3

CFTR [4] = system: CFTR; parameters: method as in PMID 24106801; settings: primary non-CF HBECs; cited from earlier work
CFTR [5] = target: T2, CFTR (Homo sapiens, UniProt P13569); test: In vitro CFTR membrane potential assay in primary human bronchial epithelial cells (air–liquid interface); assay type: cell-based; settings: primary HBECs, one donor sample; forskolin 10 μM; VX-770 1 μM, MK-571 1.8 μM, Roflumilast 1 μM
T2 construct: endogenous in cells; host or cells: primary human bronchial epithelial cells from two donors, air–liquid interface
T2 sequence (P13569 whole entry): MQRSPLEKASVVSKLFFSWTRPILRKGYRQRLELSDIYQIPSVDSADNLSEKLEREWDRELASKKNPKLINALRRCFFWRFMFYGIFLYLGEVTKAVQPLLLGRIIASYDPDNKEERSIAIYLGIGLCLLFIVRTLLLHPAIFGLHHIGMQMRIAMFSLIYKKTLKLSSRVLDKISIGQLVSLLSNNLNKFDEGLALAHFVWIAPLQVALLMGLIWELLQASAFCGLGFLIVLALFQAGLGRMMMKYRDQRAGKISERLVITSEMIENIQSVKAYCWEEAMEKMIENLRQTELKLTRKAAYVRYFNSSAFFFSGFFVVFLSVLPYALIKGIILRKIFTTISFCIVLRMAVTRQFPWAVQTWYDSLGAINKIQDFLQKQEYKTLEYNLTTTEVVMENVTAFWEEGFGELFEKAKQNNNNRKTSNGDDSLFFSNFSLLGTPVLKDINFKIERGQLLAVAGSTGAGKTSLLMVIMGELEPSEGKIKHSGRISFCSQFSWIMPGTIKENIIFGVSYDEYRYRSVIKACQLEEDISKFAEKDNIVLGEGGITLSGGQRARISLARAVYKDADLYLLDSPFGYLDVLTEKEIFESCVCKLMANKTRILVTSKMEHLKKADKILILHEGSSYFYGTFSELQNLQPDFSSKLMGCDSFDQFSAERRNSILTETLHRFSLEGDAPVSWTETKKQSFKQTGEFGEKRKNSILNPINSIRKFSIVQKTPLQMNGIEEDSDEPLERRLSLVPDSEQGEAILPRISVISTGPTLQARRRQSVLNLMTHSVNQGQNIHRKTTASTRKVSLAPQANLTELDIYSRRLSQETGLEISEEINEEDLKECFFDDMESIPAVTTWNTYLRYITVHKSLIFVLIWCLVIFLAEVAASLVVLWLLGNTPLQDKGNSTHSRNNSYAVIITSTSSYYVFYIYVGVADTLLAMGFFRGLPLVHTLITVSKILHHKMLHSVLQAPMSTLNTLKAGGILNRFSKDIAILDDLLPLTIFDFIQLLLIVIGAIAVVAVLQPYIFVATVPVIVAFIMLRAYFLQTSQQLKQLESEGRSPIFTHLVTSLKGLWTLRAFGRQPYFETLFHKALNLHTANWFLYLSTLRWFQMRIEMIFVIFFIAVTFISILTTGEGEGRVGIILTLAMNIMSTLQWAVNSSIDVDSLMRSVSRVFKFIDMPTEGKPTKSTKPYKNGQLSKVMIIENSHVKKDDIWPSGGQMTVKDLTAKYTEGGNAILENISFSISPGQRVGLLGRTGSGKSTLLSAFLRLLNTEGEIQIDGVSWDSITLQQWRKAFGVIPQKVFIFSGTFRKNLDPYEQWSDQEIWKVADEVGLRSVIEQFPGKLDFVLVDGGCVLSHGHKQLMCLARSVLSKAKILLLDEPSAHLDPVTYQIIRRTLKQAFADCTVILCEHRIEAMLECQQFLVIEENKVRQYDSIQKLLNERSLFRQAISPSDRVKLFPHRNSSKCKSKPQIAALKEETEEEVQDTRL
Protocol: as §1
Calu-3 cells were grown for 21 days on 96-well plates and primary HBECs were grown for 14 days under air–liquid interface conditions on collagen-coated (Sigma-Aldrich) 6.5 mm Transwell Inserts (Corning). All cells were washed with HBSS prior to experimental conditions. […] CFTR activity measurements are fluorescent readouts for detecting ion channel activity. CFTR inhibition was performed with CFTRinh-172 (10 μM) for all experiments to attribute changes in fluorescence as CFTR channel activity. […]
For primary HBECs, measurements were taken during baseline (8 min), drug additions (40 min), and CFTR inhibitions (18 min). cAMP elevation was performed using forskolin (10 μM). […] CFTR activity was determined by averaging six independent measurements within a single Transwell insert. […]
For in vitro CFTR membrane potential assays, in Calu-3 cells, values were normalized to the averaged baseline over averaged vehicle (DMSO) control of all biological replicates. SD was calculated using data from biological replicates (n = 4–8). […]

CFTR [6] = system: CFTR; parameters: method as in PMID 24106801; settings: Calu-3 cells; cited from earlier work
[7] = forskolin (FSK) curve with agent vs DMSO control
[8] = forskolin (FSK) curve with agent vs DMSO control, VX-770 1 μM, MK-571 1.8 μM, Ceefourin-1 4.8 μM, Roflumilast 1 μM, Rolipram 10 μM, IBMX 100 μM
[9] = isoproterenol (ISO) curve with agent vs DMSO control
[10] = isoproterenol (ISO) curve with agent vs DMSO control, same agent concentrations as E5

SMILES | predicted forced expiratory volume in 1 s (FEV1) from baseline (G551D-CFTR) | Fold-change of AUC relative to vehicle control (CFTR [1]; FSK stimulation, comparison across independent experiments) | Baseline of concentration–response curve, CFTR activity (CFTR [1]; [7]) | EC50 of concentration–response curve, CFTR activity (CFTR [1]; [7]) | Emax of concentration–response curve, CFTR activity (CFTR [1]; [7]) | AUC of concentration–response curve, CFTR activity (CFTR [1]; [8]) | Baseline of concentration–response curve, CFTR activity (CFTR [1]; [9]) | EC50 of concentration–response curve, CFTR activity (CFTR [1]; [9]) | Emax of concentration–response curve, CFTR activity (CFTR [1]; [9]) | AUC of concentration–response curve, CFTR activity (CFTR [1]; [10]) | IC50 (ABCC4 [2]) [nM] | IC50 (ABCC4 [3]) [nM] | CFTR activation (CFTR [4]) | AUC of CFTR activity time course compared with VX-770 alone (CFTR [5]) | max peak of CFTR activity compared with VX-770 alone (CFTR [5]) | CFTR potentiation beyond max FSK stimulation (CFTR [6])
CC(C)(C)c1cc(C(C)(C)C)c(NC(=O)c2c[nH]c3ccccc3c2=O)cc1O [VX-770, ivacaftor] | significant increases | superior to either ABCC4 (MK-571) or PDE-4 (Roflumilast) inhibition alone | no significant changes | increased the sensitivity | remained unchanged | significant increase | significant increase | no changes | no changes | significant increase | – | – | – | – | – | –
Cn1c(CSc2nc3ccccc3s2)n[nH]c1=S [Ceefourin-1] | – | – | No combination of ABCC4 inhibitor and cAMP-elevating agent changed CFTR activity | No combination of ABCC4 inhibitor and cAMP-elevating agent changed CFTR activity | No combination of ABCC4 inhibitor and cAMP-elevating agent changed CFTR activity | No combination of ABCC4 inhibitor and cAMP-elevating agent changed CFTR activity | No combination of ABCC4 inhibitor and cAMP-elevating agent changed CFTR activity | No combination of ABCC4 inhibitor and cAMP-elevating agent changed CFTR activity | No combination of ABCC4 inhibitor and cAMP-elevating agent changed CFTR activity | No combination of ABCC4 inhibitor and cAMP-elevating agent changed CFTR activity | 4800 | 700 | – | – | – | –
O=C(Nc1c(Cl)cncc1Cl)c1ccc(OC(F)F)c(OCC2CC2)c1 [Roflumilast] | – | – | not different | not different | not different | not FSK | not different | not different | not different | significant increases | – | – | led to CFTR activation | significantly greater than VX-770 alone | significantly greater than VX-770 alone | did not potentiate CFTR activity beyond the max stimulation that resulted from the addition of FSK
